biological target: T1, MAGL protein (Homo sapiens, UniProt Q99685); assay: 2-AG assay: MAGL inhibitory activity by hydrolysis of 2-arachidonoylglycerol to arachidonic acid, followed by mass spectrometry; assay type: biochemical; settings: 8 μM 2-arachidonoylglycerol, 15 min preincubation, 30 min reaction at RT, RapidFire MS readout
T1 sequence (Q99685 1-303): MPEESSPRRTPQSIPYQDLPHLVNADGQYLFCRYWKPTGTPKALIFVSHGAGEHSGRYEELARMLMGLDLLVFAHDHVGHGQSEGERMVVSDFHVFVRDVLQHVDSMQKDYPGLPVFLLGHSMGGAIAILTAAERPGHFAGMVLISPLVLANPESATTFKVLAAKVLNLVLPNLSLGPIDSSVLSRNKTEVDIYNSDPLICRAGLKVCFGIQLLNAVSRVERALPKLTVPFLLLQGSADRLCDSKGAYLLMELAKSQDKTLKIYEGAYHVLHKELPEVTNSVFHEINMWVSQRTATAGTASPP
How it was run: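 MAGL was preincubated 15 min at RT with compound (12.5 to […], 3-fold steps) in 50 mM TRIS, 1 mM EDTA, 0.01% Tween-20, 2.5% DMSO. The reaction ran 30 min at RT with 8 μM 2-AG. Arachidonic acid was quantified by RapidFire SPE-MS/MS against a d8-arachidonic acid internal standard.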

Row | SMILES | IC50
1 | N#Cc1ccc(OC2CC3(C2)CN(C(=O)N2CC4(CC(c5nc(C6CC6)n[nH]5)C4)C2)C3)cc1C(F)(F)F [compound 605] | 0.86 nM
2 | O=C(N1CC2(CC(Cc3cn[nH]c3C(F)(F)F)C2)C1)N1CC2(CC(c3nc(C4CC4)n[nH]3)C2)C1 [compound 607] | 0.08 nM
3 | O=C(N1CC2(CC(c3nc(C4CC4)n[nH]3)C2)C1)N1CC2(CN(Cc3cc(C(F)(F)F)on3)C2)C1 [compound 609] | 8.32 nM
4 | N#Cc1cc(C(F)(F)F)ncc1C[C@H]1CCC2(C1)CN(C(=O)N1CC3(CC(c4nnc(C5CC5)[nH]4)C3)C1)C2 [compound 611] | 0.68 nM
5 | O=C(N1CC2(CC(c3nc(C4CC4)n[nH]3)C2)C1)N1CC2(CC[C@@H](Cc3ccc(S(=O)(=O)C(F)(F)F)cc3)C2)C1 [compound 612] | 0.13 nM
6 | O=C(N1CC2(CC(Cc3cc(C(F)F)[nH]n3)C2)C1)N1CC2(CC(c3nc(C4(O)CC4)n[nH]3)C2)C1 [compound 615] | 1.65 nM
7 | O=C(N1CC2(CC(Cc3ccc(S(=O)(=O)C(F)(F)F)cn3)C2)C1)N1CC2(CC(c3nc(C4(O)CC4)n[nH]3)C2)C1 [compound 616] | 1.01 nM
8 | O=C(N1CC2(CC(Cc3ncc(F)cc3Cl)C2)C1)N1CC2(CC(c3nc(C4CC(F)(F)C4)n[nH]3)C2)C1 [compound 617] | 8.16 nM
9 | O=C(N1CC2(CC(c3nc(C4CC4)n[nH]3)C2)C1)N1CC2(CN(Cc3ccn(CC(F)(F)F)n3)C2)C1 [compound 618] | 95.1 nM
10 | O=C(N1CC2(CC(Oc3ccc(Cl)cn3)C2)C1)N1CC2(CC(c3nc(C4CC4)n[nH]3)C2)C1 [compound 619] | 0.79 nM
11 | O=C(N1CC2(CC(Cc3ncc(C(F)(F)F)cc3F)C2)C1)N1CC2(CC(c3ncn[nH]3)C2)C1 [compound 620] | 187 nM
12 | O=C(N1CC2(CC(Cn3cc(C(F)(F)F)ccc3=O)C2)C1)N1CC2(CC(c3nc(C4(O)CC4)n[nH]3)C2)C1 [compound 621] | 3.62 nM
13 | O=C(N1CC2(CC(Oc3ncc(F)cc3Cl)C2)C1)N1CC2(CC(c3nc(C4CC4)n[nH]3)C2)C1 [compound 622] | 0.63 nM
14 | Cn1nc(C2CC2)cc1CN1CC2(C1)CN(C(=O)N1CC3(CC(c4nc(C5CC5)n[nH]4)C3)C1)C2 [compound 623] | 12.6 nM
15 | O=C(N1CC2(CC(c3nc(C4CC4)n[nH]3)C2)C1)N1CC2(CN(Cc3cc(C(F)(F)F)[nH]n3)C2)C1 [compound 625] | 8.75 nM
16 | O=C(N1CC2(CC(c3nc(C4CC4)n[nH]3)C2)C1)N1CC2(CN(Cc3cnn(C(F)F)c3)C2)C1 [compound 628] | 149 nM
17 | N#Cc1ccc(CC2CC3(C2)CN(C(=O)N2CC4(CC(c5nc(C6(O)CC6)n[nH]5)C4)C2)C3)cc1C(F)(F)F [compound 629] | 1.45 nM
18 | O=C(N1CC2(CC(c3cnc(C(F)(F)F)nc3)C2)C1)N1CC2(CC(c3nnc(C4CC4)[nH]3)C2)C1 [compound 630] | 1.36 nM
19 | CS(=O)(=O)c1cc(C(F)(F)F)ccc1CC1CC2(C1)CN(C(=O)N1CC3(CC(c4ncn[nH]4)C3)C1)C2 [compound 633] | 1310 nM

Row | SMILES | IC50
20 | O=C(N1CC2(CC(Cn3cc(C(F)(F)F)cn3)C2)C1)N1CC2(CC(c3nc(C4COC4)n[nH]3)C2)C1 [compound 634] | 104 nM
21 | O=C(N1CC2(CC(c3nc(C4CC4)n[nH]3)C2)C1)N1CC2(CN(Cc3nc(C4CC4)ns3)C2)C1 [compound 637] | 7.44 nM
22 | O=C(N1CC2(CC(c3nc(C4CC4)n[nH]3)C2)C1)N1CC2(CN(Cc3cnc(C(F)(F)F)o3)C2)C1 [compound 642] | 27.5 nM
23 | O=C(N1CC2(CC(Cc3cc(C4CC4)n[nH]3)C2)C1)N1CC2(CC(c3nc(C4CC4)n[nH]3)C2)C1 [compound 644] | 0.22 nM
24 | O=C(N1CC(c2ccc(N3CC(O)(C(F)(F)F)C3)nc2)C1)N1CC2(CC(c3nc(C4CC(F)(F)C4)n[nH]3)C2)C1 [compound 646] | 424 nM
25 | O=C(N1CC2(CC(Cc3ncc(C(F)(F)F)cn3)C2)C1)N1CC2(CC(c3nc(C4(F)CC4)n[nH]3)C2)C1 [compound 647] | 0.97 nM
26 | O=C(N1CC2(CC(Cc3ccc(S(=O)(=O)C(F)(F)F)cn3)C2)C1)N1CC2(CC(c3nc(C4(F)CC4)n[nH]3)C2)C1 [compound 652] | 0.19 nM
27 | O=C(N1CC2(CC(c3nc(C4(O)CC4)n[nH]3)C2)C1)N1CC2(CC[C@H](Cc3ccc(S(=O)(=O)C(F)(F)F)cc3)C2)C1 [compound 653] | 1 nM
28 | O=C(N1CC2(CC(c3nc(C4CC(F)(F)C4)n[nH]3)C2)C1)N1CC2(CN(Cc3sncc3C(F)(F)F)C2)C1 [compound 655] | 557 nM
29 | O=C(N1CC2(CC(c3nc(C4CC4)n[nH]3)C2)C1)N1CC2(CN(Cc3ccnn3C(F)(F)F)C2)C1 [compound 656] | 39.7 nM
30 | N=S(=O)(c1cccc(CC2CC3(C2)CN(C(=O)N2CC4(CC(c5nc(C6CC(F)(F)C6)n[nH]5)C4)C2)C3)c1)C(F)(F)F (stereo not drawn) [compound 657] | 17.2 nM
31 | Cn1ncc(C(F)(F)F)c1CN1CC2(C1)CN(C(=O)N1CC3(CC(c4nc(C5CC(F)(F)C5)n[nH]4)C3)C1)C2 [compound 658] | 412 nM
32 | CC(C)(C)c1c[nH]c(CN2CC3(C2)CN(C(=O)N2CC4(CC(c5nc(C6CC6)n[nH]5)C4)C2)C3)n1 [compound 659] | 40.9 nM
33 | O=C(N1CC2(CC(Cc3ccc(C(F)(F)F)cn3)C2)C1)N1CC2(CC(c3nc(C4CC(F)(F)C4)n[nH]3)C2)C1 [compound 661] | 21.9 nM
34 | O=C(N1CC2(CC(c3nc(C4CC4)n[nH]3)C2)C1)N1CC2(CN(Cc3nc(C(F)(F)F)no3)C2)C1 [compound 662] | 11.9 nM
35 | O=C(N1CC2(CC(c3nc(C4CC4)n[nH]3)C2)C1)N1CC2(CN(Cc3conc3C(F)(F)F)C2)C1 [compound 663] | 13.1 nM
36 | Cn1ncc(C(F)(F)F)c1CN1CC2(C1)CN(C(=O)N1CC3(CC(c4nc(C5CC5)n[nH]4)C3)C1)C2 [compound 664] | 2.74 nM
37 | O=C(N1CC2(CC(Oc3ncc(C(F)(F)F)cc3F)C2)C1)N1CC2(CC(c3nc(C4CC4)n[nH]3)C2)C1 [compound 665] | 0.23 nM
38 | O=C(N1CC(c2cnc(N3CC[C@@H](C(F)(F)F)C3)nc2)C1)N1CC2(CC(c3nc(C4CC4)n[nH]3)C2)C1 [compound 666] | 2.2 nM

The remaining compounds from weak to strong by IC50, led by results:

Row | IC50 | SMILES
39 | 950 nM | O=C(N1CC(c2ccc(C3(C(F)(F)F)CC3)cc2)C1)N1CC2(CC(c3ncn[nH]3)C2)C1 [compound 635]
40 | 67.4 nM | O=C(N1CC2(CC(c3nc(C4CC4)n[nH]3)C2)C1)N1CC2(CN(Cc3ncc(C(F)(F)F)[nH]3)C2)C1 [compound 641]
41 | 56.4 nM | O=C(N1CC2(CC(Cc3ccc4ncnn4c3)C2)C1)N1CC2(CC(c3nc(C4(O)CC4)n[nH]3)C2)C1 [compound 626]
42 | 43.7 nM | Cc1c(CN2CC3(C2)CN(C(=O)N2CC4(CC(c5nc(C6CC6)n[nH]5)C4)C2)C3)cnn1CC(F)(F)F [compound 640]
43 | 34.4 nM | N=S(=O)(c1ccc(CC2CC3(C2)CN(C(=O)N2CC4(CC(c5nc(C6CC(F)(F)C6)n[nH]5)C4)C2)C3)cc1)C(F)(F)F (stereo not drawn) [compound 603]
44 | 10.7 nM | O=C(N1CC2(CC(Oc3cnn(CC(F)(F)F)c3)C2)C1)N1CC2(CC(c3nc(C4CC4)n[nH]3)C2)C1 [compound 631]
45 | 9.74 nM | Cn1nc(C(F)(F)F)cc1CN1CC2(C1)CN(C(=O)N1CC3(CC(c4nc(C5CC5)n[nH]4)C3)C1)C2 [compound 650]
46 | 9.48 nM | O=C(N1CC2(CC(c3nc(C4CC4)n[nH]3)C2)C1)N1CC2(CN(Cc3cnc(C(F)F)s3)C2)C1 [compound 651]
47 | 8.21 nM | O=C(N1CC2(CC(c3nc(C4CC4)n[nH]3)C2)C1)N1CC2(CN(Cc3ncc(C(F)F)s3)C2)C1 [compound 624]
48 | 6.89 nM | O=C(N1CC2(CC(Cc3cccc(S(=O)(=O)C(F)(F)F)c3)C2)C1)N1CC2(CC(c3nc(C4CC(F)(F)C4)n[nH]3)C2)C1 [compound 604]
49 | 6.67 nM | O=C(N1CC2(CC(c3nc(C4(F)CC4)n[nH]3)C2)C1)N1CC2(CN(Cc3nc(C(F)(F)F)cs3)C2)C1 [compound 643]
50 | 6.54 nM | O=C(N1CC2(CC(Cc3ccc4ncnn4c3)C2)C1)N1CC2(CC(c3nc(C4CC4)n[nH]3)C2)C1 [compound 645]
51 | 5.49 nM | O=C(N1CC2(CC(c3nc(C4CC4)n[nH]3)C2)C1)N1CC2(CN(Cc3cc(C4CCC4)[nH]n3)C2)C1 [compound 614]
52 | 5.17 nM | N#Cc1cc(CC2CC3(C2)CN(C(=O)N2CC4(CC(c5nnc(C6(O)CC6)[nH]5)C4)C2)C3)cnc1C(F)(F)F [compound 606]
53 | 0.91 nM | O=C(N1CC2(CC(Cc3ncc(Cl)cc3F)C2)C1)N1CC2(CC(c3nc(C4CC4)n[nH]3)C2)C1 [compound 613]
54 | 0.79 nM | CS(=N)(=O)c1cc(CC2CC3(C2)CN(C(=O)N2CC4(CC(c5nc(C6CC6)n[nH]5)C4)C2)C3)cc(C(F)(F)F)c1 (stereo not drawn) [compound 660]
55 | 0.52 nM | N=S(=O)(c1ccc(C2CN(C(=O)N3CC4(CC(c5nc(C6CC6)n[nH]5)C4)C3)C2)cc1)C(F)(F)F (stereo not drawn) [compound 638]
56 | 0.4 nM | O=C(N1CC2(CC(Cc3cc(C(F)F)[nH]n3)C2)C1)N1CC2(CC(c3nc(C4CC4)n[nH]3)C2)C1 [compound 610]
57 | 0.21 nM | N=S(=O)(c1cccc(CC2CC3(C2)CN(C(=O)N2CC4(CC(c5nc(C6(O)CC6)n[nH]5)C4)C2)C3)c1)C(F)(F)F (stereo not drawn) [compound 639]
58 | 0.12 nM | N=S(=O)(c1cc(F)cc(CC2CC3(C2)CN(C(=O)N2CC4(CC(c5nc(C6CC6)n[nH]5)C4)C2)C3)c1)C(F)(F)F (stereo not drawn) [compound 649]
59 | 0.05 nM | O=C(N1CC2(CC(Cc3cccc(S(=O)(=O)C(F)(F)F)c3)C2)C1)N1CC2(CC(c3nc(C4(F)CC4)n[nH]3)C2)C1 [compound 627]
60 | 0.04 nM | O=C(N1CC2(CC(Cc3cc(F)cc(S(=O)(=O)C(F)(F)F)c3)C2)C1)N1CC2(CC(c3nc(C4CC4)n[nH]3)C2)C1 [compound 654]
